Data set [1] deals with T1, ZoADH (Zobellia galactanivorans, UniProt G0L712).
T1 construct: gene adhI; codon-optimized synthetic gene in pET28a, N-terminal Strep-tag, E. coli BL21(DE3); homotetramer; 2 Zn per monomer
Nature of the data set: X-ray crystal structure. It is filed as binding. To be noted: co-crystallised with 20 mM NAD+, pH 7.5; Zn2+ bound.

The target in data set [2] is T2, FoADH (Formosa agariphila, UniProt T2KM87).
T2 construct: gene BN863_21030; full-length from genomic DNA in pET28a, N-terminal Strep-tag, E. coli BL21(DE3); homotetramer; 2 Zn per monomer
T2 sequence (T2KM87 1-370): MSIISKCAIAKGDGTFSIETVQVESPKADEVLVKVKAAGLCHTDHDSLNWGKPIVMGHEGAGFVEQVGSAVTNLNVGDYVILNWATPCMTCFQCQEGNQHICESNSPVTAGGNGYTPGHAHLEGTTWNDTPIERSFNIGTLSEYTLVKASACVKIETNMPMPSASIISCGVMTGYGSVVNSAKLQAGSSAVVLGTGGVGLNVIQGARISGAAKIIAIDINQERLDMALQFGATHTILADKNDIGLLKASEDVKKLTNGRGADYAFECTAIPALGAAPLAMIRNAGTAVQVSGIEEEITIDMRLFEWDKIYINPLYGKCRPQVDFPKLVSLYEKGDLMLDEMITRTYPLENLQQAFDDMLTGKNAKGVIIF
As to the kind of experiment: X-ray crystal structure. The following applies: co-crystallised with 20 mM NAD+, pH 7.5; Zn2+ bound. The class given is binding.

Data set [3] has as its target zinc-dependent alcohol dehydrogenase from Zobellia galactanivorans DsijT (Zobellia galactanivorans DsijT). As to the kind of experiment: crystal structure; enzyme (25 mg/mL) incubated with 20 mM NAD+ overnight; crystals from 0.1 M Tris-HCl pH 7.5, 0.2 M KCl, 20-22% (w/v) PEG 3350 at 22 °C; tetrameric interfaces analysed by PDBePISA; tetramer as a dimer of dimers.
Data set [4] concerns the molecule itself. The description is as above.

T1 sequence (G0L712 entry or part of it): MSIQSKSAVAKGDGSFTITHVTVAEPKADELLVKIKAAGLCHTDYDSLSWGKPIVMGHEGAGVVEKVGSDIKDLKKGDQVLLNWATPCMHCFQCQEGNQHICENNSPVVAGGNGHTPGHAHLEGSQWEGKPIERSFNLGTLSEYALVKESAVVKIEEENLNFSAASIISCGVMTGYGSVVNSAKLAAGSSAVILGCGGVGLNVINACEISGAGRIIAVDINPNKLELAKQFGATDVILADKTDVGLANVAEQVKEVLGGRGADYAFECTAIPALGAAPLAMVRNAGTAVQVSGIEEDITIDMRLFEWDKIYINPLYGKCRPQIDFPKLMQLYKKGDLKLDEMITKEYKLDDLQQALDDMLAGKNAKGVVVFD

Consider `NC(=O)c1ccc[n+]([C@@H]2O[C@H](COP(=O)(O)OP(=O)(O)OC[C@H]3O[C@@H](n4cnc5c(N)ncnc54)[C@H](O)[C@@H]3O)[C@@H](O)[C@H]2O)c1` [NAD^+], for which the X-ray crystal structure entry was “PDB codes 8H2A (FoADH-NAD) and 8H2B (ZoADH-NAD)” in data set [1]; “deposited in the Protein Data Bank under PDB codes 8H2A (FoADH-NAD)” in data set [2].

Turning to “zinc-dependent alcohol dehydrogenase from Zobellia galactanivorans DsijT (enzyme)”, the stoichiometry N in data set [3] was 4.

B1: zinc-dependent alcohol dehydrogenase from Formosa agariphila KMM 3901T (enzyme, UniProt T2KM87 1-370, looked up)
chain: MSIISKCAIAKGDGTFSIETVQVESPKADEVLVKVKAAGLCHTDHDSLNWGKPIVMGHEGAGFVEQVGSAVTNLNVGDYVILNWATPCMTCFQCQEGNQHICESNSPVTAGGNGYTPGHAHLEGTTWNDTPIERSFNIGTLSEYTLVKASACVKIETNMPMPSASIISCGVMTGYGSVVNSAKLQAGSSAVVLGTGGVGLNVIQGARISGAAKIIAIDINQERLDMALQFGATHTILADKNDIGLLKASEDVKKLTNGRGADYAFECTAIPALGAAPLAMIRNAGTAVQVSGIEEEITIDMRLFEWDKIYINPLYGKCRPQVDFPKLVSLYEKGDLMLDEMITRTYPLENLQQAFDDMLTGKNAKGVIIF
notes: FoADH, zinc-dependent alcohol dehydrogenase of Formosa agariphila KMM 3901T (DSM-15362), amplified from genomic DNA into pET28a; the printed insert primers run from the ATG to the stop codon (TTA in the reverse primer); Crystallised with NAD+ and two zinc ions; also called FoADH; ADH; source: E. coli BL21 (DE3), purified (Strep-Tactin XT Sepharose, size exclusion chromatography)
Regarding B1, the “stoichiometry N” value in data set [4] is 4.

Source of the values: PMC10033563, “Unique alcohol dehydrogenases involved in algal sugar utilization by marine bacteria” (Applied Microbiology and Biotechnology, 2023).
